In paper PMC12091851, “Replacing a Cereblon Ligand by a DDB1 and CUL4 Associated Factor 11 (DCAF11) Recruiter Converts a Selective Histone Deacetylase 6 PROTAC into a Pan‐Degrader” (Chemmedchem, 2025):

Experiments:
[1] = test system: acetylated α-tubulin and histone H3; experiment: Cellular target engagement, immunoblot of acetylated α-tubulin and histone H3 in MM.1S; type: cell-based, human; settings: MM.1S cells, 10 μM, 24 h; compared to 2 and A6
Procedure: Moreover, the capability to reduce the enzymatic activity of HDACs was confirmed by a cellular target engagement assay. MM.1S cells were treated with the PROTACs and the level of acetylated HDAC substrate proteins was subsequently determined. Class I HDACs deacetylate histone H3, and thus hyperacetylation of histone H3 indicates class I HDAC inhibition. Conversely, hyperacetylation of α‐tubulin serves a marker of HDAC6 inhibition. Both hit compounds are capable of inhibiting class I and HDAC6 in a cellular environment, confirming effective target engagement in MM.1S cells (Figure 5). With regards to the HDAC6 inhibition, the trend of the enzyme inhibition data was thus confirmed. […]
Samples of the aqueous solutions were taken after 0, 24, 48, and 72 h at room temperature and the amounts of the parental compound and potential fragments were monitored by HPLC gradient A (see 3.1 General Information). […]
Afterwards, proteins were transferred with the Trans -Blot Turbo Transfer System (Catalog# 1704150, Bio-Rad) to Immobilon-FL PVDF membranes (Catalog# IPFL00005, Mill ipore Merck, Burlington, MA, USA) at 1.0 A for 30 min and treated with 5% milk-powder solution for 1 h at room temperature under slight agitation. […] The ChemiDoc XRS+ System (Catalog# 1708265 , Bio-Rad) was used for detection and Image Lab Software 6.1 (Bio-Rad) for quantification. […]

HDAC1, 2, 4, and 6 = experiment: Immunoblot HDAC isoform degradation in MM.1S, all tested isoforms; type: cell-based, human; settings: MM.1S cells, 10 μM, 24 h
Procedure: Figure 6 Examination of HDAC isoform degradation. MM.1S cells were treated with the indicated compounds (10 μM) or vehicle (DMSO) for 24 h. HDAC1, 2, 4, and 6 levels were analyzed by immunoblotting. (A) Representative images from a total of n=3 biological replicates.
2.5. Aqueous Stability Assay
For stability testing in aqueous solution, a 10-fold concentrated DMSO solution of the respective compounds was diluted in DPBS to generate a 10 µM concentration (final DMSO content of 10%).
Samples of the aqueous solutions were taken after 0, 24, 48, and 72 h at room temperature and the amounts of the parental compound and potential fragments were monitored by HPLC gradient A (see 3.1 General Information). The peak area of the 0 h sample was used for normalization. All compounds were tested in duplicates and GraphPad Prim was used for evaluation and data visualization.
The cell lysis was performed as descripted in 3.2. Simple Western Immunoassay. Samples were denatured by Laemmli 2× Concentrate (Catalog# S3401-10VL, Sigma-Aldrich) for 5 min at 95 °C, and […]
Bio-Rad, Hercules, CA, USA). […]
6.1 (Bio-Rad) for quantification. […]
In vitro inhibitory activities against HDAC1, 2 , and 6 were measured using a previously published protocol.[3] In vitro inhibitory activities against HDAC4 were measured using a previously published protocol with slight modifications. […]

SMILES: O=C(CCCCCCNC(=O)c1ccc(NC(=O)CCCCCCCCCCCN(C(=O)CCl)C(C(=O)NCc2ccccc2)c2ccc(Cl)c(Cl)c2)cc1)NO (centres unmarked) [Compound 1j]
- histone H3 hyperacetylation [1]: more pronounced
- Dmax, all four tested isoforms / other HDAC isoforms (HDAC1, 2, 4, and 6): 71–90%
